Assay results published in patent US20060069132A1, “Azolecarboxamide herbicides” (priority 2004, published 2006).

Key:
[1] = tested on: bermudagrass; assay: Test C pre-/postemergence herbicide test; assay type: in vivo, Cynodon dactylon; settings: preemergence; for Plant response rating (0 = no effect, 100 = complete control), Bermudagrass: 125 g ai/ha
Method in brief: (§1)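 Visual injury scores run from 0 (no effect) to 100 (complete control), assessed relative to untreated controls 12 to 14 days after treatment in the greenhouse. Chemicals were formulated in a non-phytotoxic solvent mixture with surfactant and applied to soil after planting or to emerged plants at the 1- to 4-leaf stage.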

[2] = tested on: soybean; assay: Test C pre-/postemergence herbicide test; assay type: in vivo, Glycine max; settings: preemergence; for Plant response rating (0 = no effect, 100 = complete control), Soybean: 125 g ai/ha
Method in brief: as §1

[3] = tested on: large crabgrass; assay: Test C pre-/postemergence herbicide test; assay type: in vivo, Digitaria sanguinalis; settings: preemergence; for Plant response rating (0 = no effect, 100 = complete control), Crabgrass, Large: 125 g ai/ha
Method in brief: as §1

[4] = tested on: common (oilseed) sunflower; assay: Test C pre-/postemergence herbicide test; assay type: in vivo, Helianthus annuus; settings: preemergence; for Plant response rating (0 = no effect, 100 = complete control), Sunflower: 125 g ai/ha
Method in brief: as §1

[5] = tested on: ducksalad; assay: Test C flooded paddy test; assay type: in vivo, Heteranthera limosa; settings: for Plant response rating, Ducksalad: 500 g ai/ha, visual rating after 12 to 14 days
[6] = tested on: rice; assay: Test C flooded paddy test; assay type: in vivo, Oryza sativa; settings: for Plant response rating, Rice: 500 g ai/ha, visual rating after 12 to 14 days
Method in brief: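 Injury scored visually against controls on a 0 (no effect) to 100 (complete control) scale, 12 to 14 days after treatment in greenhouse. Flooded paddy plants treated at 2-leaf stage; postemergence plants at 1- to 4-leaf stage, 2 to 18 cm tall.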

[7] = tested on: barnyardgrass; assay: Test C flooded paddy test; assay type: in vivo, Echinochloa crus-galli; settings: for Plant response rating, Barnyardgrass: 500 g ai/ha, visual rating after 12 to 14 days
Method in brief: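 Postemergence sprays applied to plants 2 to 18 cm tall (1- to 4-leaf stage); paddy species grown to 2-leaf stage under flooding. After 12 to 14 days in greenhouse, visual rating versus untreated controls on 0–100 scale (0 no effect, 100 complete control).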

[8] = tested on: kochia; assay: Test C pre-/postemergence herbicide test; assay type: in vivo, Kochia scoparia; settings: preemergence; for Plant response rating (0 = no effect, 100 = complete control), Kochia: 125 g ai/ha
Method in brief: as §1

[9] = tested on: lambsquarters; assay: Test C pre-/postemergence herbicide test; assay type: in vivo, Chenopodium album; settings: preemergence; for Plant response rating (0 = no effect, 100 = complete control), Lambsquarters: 125 g ai/ha
Method in brief: as §1

[10] = tested on: giant foxtail; assay: Test C pre-/postemergence herbicide test; assay type: in vivo, Setaria faberi; settings: preemergence; for Plant response rating (0 = no effect, 100 = complete control), Foxtail, Giant: 125 g ai/ha
Method in brief: as §1

[11] = 62 g ai/ha, scale 0 to 100, 0 no effect, 100 complete control
[12] = 500 g ai/ha, scale 0 to 100 (0 no effect, 100 complete control), visual, 12 to 14 days
[13] = 125 g ai/ha, scale 0 to 100 (0 no effect, 100 complete control)
[14] = 250 g ai/ha, scale of 0 to 100, 0 is no effect, 100 is complete control
[15] = scale 0 to 100 (0 no effect, 100 complete control)
[16] = 62 g ai/ha, scale 0 to 100 (0 no effect, 100 complete control)

CCNC(=O)c1cccc(NC(=O)c2nn(C(C)(C)C)nc2C)c1 [Compound 392]
Plant response rating, Bermudagrass [1, 11]: 90
Plant response rating (0 = no effect, 100 = complete control), Bermudagrass [1]: 90
Plant response rating, Bermudagrass ([1]; 250 g ai/ha, scale 0-100): 95
Plant response rating, Bermudagrass [1, 12]: 95
Plant response rating, Soybean ([2]; 62 g ai/ha, scale 0 to 100): 5
Plant response rating (0 = no effect, 100 = complete control), Soybean [2]: 80
Plant response rating, Soybean ([2]; 250 g ai/ha, scale 0-100): 90
Plant response rating, Soybean [2, 12]: 95
Plant response rating, Crabgrass, Large ([3]; 62 g ai/ha, scale 0 to 100): 98
Plant response rating (0 = no effect, 100 = complete control), Crabgrass, Large [3]: 100
Plant response rating, Crabgrass, Large ([3]; 250 g ai/ha, scale 0-100): 100
Plant response rating, Crabgrass, Large [3, 12]: 100
Plant response rating, Sunflower ([4]; 62 g ai/ha, scale 0 to 100): 10
Plant response rating (0 = no effect, 100 = complete control), Sunflower [4]: 50
Plant response rating, Sunflower [4, 12]: 100
Ducksalad plant response rating ([5]; 62 g ai/ha, scale 0 to 100): 45
Ducksalad plant response rating [5, 13]: 75
Ducksalad plant response rating [5, 14]: 85
Plant response rating, Ducksalad [5, 15]: 85
Rice plant response rating ([6]; 62 g ai/ha, scale 0 to 100): 50
Rice plant response rating [6, 13]: 60
Rice plant response rating [6, 14]: 75
Plant response rating, Rice [6, 15]: 75
Barnyardgrass plant response rating [7, 16]: 15
Barnyardgrass plant response rating [7, 13]: 45
Barnyardgrass plant response rating [7, 14]: 80
Plant response rating, Barnyardgrass [7, 15]: 90
Plant response rating, Kochia ([8]; 62 g ai/ha, scale 0 to 100): 75
Plant response rating (0 = no effect, 100 = complete control), Kochia [8]: 80
Plant response rating, Kochia ([8]; 250 g ai/ha, scale 0-100): 100
Plant response rating, Kochia [8, 12]: 100
Plant response rating, Lambsquarters ([9]; 62 g ai/ha, scale 0 to 100): 100
Plant response rating (0 = no effect, 100 = complete control), Lambsquarters [9]: 100
Plant response rating, Lambsquarters ([9]; 250 g ai/ha, scale 0-100): 100
Plant response rating, Lambsquarters [9, 12]: 100
Plant response rating, Foxtail, Giant ([10]; 62 g ai/ha, scale 0 to 100): 65
Plant response rating (0 = no effect, 100 = complete control), Foxtail, Giant [10]: 90
Plant response rating, Foxtail, Giant ([10]; 250 g ai/ha, scale 0-100): 100
Plant response rating, Foxtail, Giant [10, 12]: 100

CCc1nn(C(C)(C)C)nc1C(=O)Nc1cccc(C(=S)N(C)C)c1 [Compound 395]
Plant response rating, Bermudagrass [1, 11]: 95
Plant response rating (0 = no effect, 100 = complete control), Bermudagrass [1]: 100
Plant response rating, Bermudagrass ([1]; 250 g ai/ha, scale 0-100): 100
Plant response rating, Bermudagrass [1, 12]: 100
Plant response rating, Soybean ([2]; 62 g ai/ha, scale 0 to 100): 75
Plant response rating (0 = no effect, 100 = complete control), Soybean [2]: 85
Plant response rating, Soybean ([2]; 250 g ai/ha, scale 0-100): 100
Plant response rating, Soybean [2, 12]: 100
Plant response rating, Crabgrass, Large ([3]; 62 g ai/ha, scale 0 to 100): 100
Plant response rating (0 = no effect, 100 = complete control), Crabgrass, Large [3]: 100
Plant response rating, Crabgrass, Large ([3]; 250 g ai/ha, scale 0-100): 100
Plant response rating, Crabgrass, Large [3, 12]: 100
Plant response rating, Sunflower ([4]; 62 g ai/ha, scale 0 to 100): 0
Plant response rating (0 = no effect, 100 = complete control), Sunflower [4]: 0
Plant response rating, Sunflower ([4]; 250 g ai/ha, scale 0-100): 50
Plant response rating, Sunflower [4, 12]: 55
Ducksalad plant response rating ([5]; 62 g ai/ha, scale 0 to 100): 15
Ducksalad plant response rating [5, 13]: 20
Ducksalad plant response rating [5, 14]: 55
Plant response rating, Ducksalad [5, 15]: 55
Rice plant response rating ([6]; 62 g ai/ha, scale 0 to 100): 70
Rice plant response rating [6, 13]: 70
Rice plant response rating [6, 14]: 70
Plant response rating, Rice [6, 15]: 75
Barnyardgrass plant response rating [7, 16]: 75
Barnyardgrass plant response rating [7, 13]: 80
Barnyardgrass plant response rating [7, 14]: 80
Plant response rating, Barnyardgrass [7, 15]: 90
Plant response rating, Kochia ([8]; 62 g ai/ha, scale 0 to 100): 100
Plant response rating (0 = no effect, 100 = complete control), Kochia [8]: 100
Plant response rating, Kochia ([8]; 250 g ai/ha, scale 0-100): 100
Plant response rating, Kochia [8, 12]: 100
Plant response rating, Lambsquarters ([9]; 62 g ai/ha, scale 0 to 100): 100
Plant response rating (0 = no effect, 100 = complete control), Lambsquarters [9]: 100
Plant response rating, Lambsquarters ([9]; 250 g ai/ha, scale 0-100): 100
Plant response rating, Lambsquarters [9, 12]: 100
Plant response rating, Foxtail, Giant ([10]; 62 g ai/ha, scale 0 to 100): 95
Plant response rating (0 = no effect, 100 = complete control), Foxtail, Giant [10]: 100
Plant response rating, Foxtail, Giant ([10]; 250 g ai/ha, scale 0-100): 100
Plant response rating, Foxtail, Giant [10, 12]: 100
